Data set [1] has as its system Salmonella typhimurium. The data set is described as follows: Mutagenicity in Salmonella typhimurium TA98 assessed as mutagenicity index at 435.85 uM/plate incubated for 90 mins at 37 degC in absence of liver S9 fractions by Ames test relative to untreated control. The class given is toxicity, organism-based. The following applies: salmonella enterica subsp. enterica serovar typhimurium, 1.5 h. On the technique in general: In the Ames test, an excess of revertant colonies over the control signals mutagenicity.

Data set [2] concerns Salmonella typhimurium. The data set can be described thus: Mutagenicity in Salmonella typhimurium TA98 assessed as mutagenicity index at 296.15 uM/plate incubated for 90 mins at 37 degC in presence of liver S9 fractions by Ames test relative to untreated control. The class given is toxicity, organism-based. The following applies: salmonella enterica subsp. enterica serovar typhimurium, s9, 1.5 h.

Data set [3] deals with Salmonella typhimurium. The data set can be described thus: Mutagenicity in Salmonella typhimurium TA98 assessed as mutagenicity index at 435.85 uM/plate incubated for 90 mins at 37 degC in presence of liver S9 fractions by Ames test relative to untreated control. To be noted: salmonella enterica subsp. enterica serovar typhimurium, s9, 1.5 h. The class given is toxicity, organism-based.

For data set [4], the system named is Salmonella typhimurium. The data set is described as follows: Mutagenicity in Salmonella typhimurium TA102 assessed as mutagenicity index at 435.85 uM/plate incubated for 90 mins at 37 degC in presence of liver S9 fractions by Ames test relative to untreated control. The class given is toxicity, organism-based. The following applies: salmonella enterica subsp. enterica serovar typhimurium, s9, 1.5 h.

For data set [5], the system named is Salmonella typhimurium. The data set is described as follows: Mutagenicity in Salmonella typhimurium TA97a assessed as mutagenicity index at 296.15 uM/plate incubated for 90 mins at 37 degC in presence of liver S9 fractions by Ames test relative to untreated control. It is filed as toxicity, organism-based. The following applies: salmonella enterica subsp. enterica serovar typhimurium, s9, 1.5 h.

For data set [6], the system named is Salmonella typhimurium. The data set is described as follows: Mutagenicity in Salmonella typhimurium TA100 assessed as mutagenicity index at 296.15 uM/plate incubated for 90 mins at 37 degC in absence of liver S9 fractions by Ames test relative to untreated control. It is filed as toxicity, organism-based. To be noted: salmonella enterica subsp. enterica serovar typhimurium, 1.5 h.

Data set [7] concerns Salmonella typhimurium. The data set can be described thus: Mutagenicity in Salmonella typhimurium TA98 assessed as mutagenicity index at 700.00 uM/plate incubated for 90 mins at 37 degC in presence of liver S9 fractions by Ames test relative to untreated control. The class given is toxicity, organism-based. The following applies: salmonella enterica subsp. enterica serovar typhimurium, s9, 1.5 h.

The test system of data set [8] is Salmonella typhimurium. The data set can be described thus: Mutagenicity in Salmonella typhimurium TA102 assessed as mutagenicity index at 570.37 uM/plate incubated for 90 mins at 37 degC in presence of liver S9 fractions by Ames test relative to untreated control. It is filed as toxicity, organism-based. The following applies: salmonella enterica subsp. enterica serovar typhimurium, s9, 1.5 h.

Data set [9] has as its system Salmonella typhimurium. The data set can be described thus: Mutagenicity in Salmonella typhimurium TA102 assessed as mutagenicity index at 296.15 uM/plate incubated for 90 mins at 37 degC in absence of liver S9 fractions by Ames test relative to untreated control. It is filed as toxicity, organism-based. To be noted: salmonella enterica subsp. enterica serovar typhimurium, 1.5 h.

For data set [10], the system named is Salmonella typhimurium. The data set can be described thus: Mutagenicity in Salmonella typhimurium TA100 assessed as mutagenicity index at 435.85 uM/plate incubated for 90 mins at 37 degC in presence of liver S9 fractions by Ames test relative to untreated control. It is filed as toxicity, organism-based. The following applies: salmonella enterica subsp. enterica serovar typhimurium, s9, 1.5 h.

The subject of data set [11] is Salmonella typhimurium. The data set can be described thus: Mutagenicity in Salmonella typhimurium TA102 assessed as mutagenicity index at 150.98 uM/plate incubated for 90 mins at 37 degC in presence of liver S9 fractions by Ames test relative to untreated control. It is filed as toxicity, organism-based. The following applies: salmonella enterica subsp. enterica serovar typhimurium, s9, 1.5 h.

Data set [12] deals with Salmonella typhimurium. The data set is described as follows: Mutagenicity in Salmonella typhimurium TA98 assessed as mutagenicity index at 313.73 uM/plate incubated for 90 mins at 37 degC in presence of liver S9 fractions by Ames test relative to control. It is filed as toxicity, organism-based. The following applies: salmonella enterica subsp. enterica serovar typhimurium, s9, 1.5 h.

For data set [13], the system named is Salmonella typhimurium. The data set is described as follows: Mutagenicity in Salmonella typhimurium TA102 assessed as mutagenicity index at 616.38 uM/plate incubated for 90 mins at 37 degC in presence of liver S9 fractions by Ames test relative to control. The class given is toxicity, organism-based. To be noted: salmonella enterica subsp. enterica serovar typhimurium, s9, 1.5 h.

In data set [14] the test system is Salmonella typhimurium. The data set is described as follows: Mutagenicity in Salmonella typhimurium TA97a assessed as mutagenicity index at 313.73 uM/plate incubated for 90 mins at 37 degC in absence of liver S9 fractions by Ames test relative to control. The class given is toxicity, organism-based. To be noted: salmonella enterica subsp. enterica serovar typhimurium, 1.5 h.

Data set [15] deals with Salmonella typhimurium. The data set is described as follows: Mutagenicity in Salmonella typhimurium TA98 assessed as mutagenicity index at 905.66 uM/plate incubated for 90 mins at 37 degC in absence of liver S9 fractions by Ames test relative to control. It is filed as toxicity, organism-based. To be noted: salmonella enterica subsp. enterica serovar typhimurium, 1.5 h.

Data set [16] deals with Salmonella typhimurium. The data set can be described thus: Mutagenicity in Salmonella typhimurium TA102 assessed as mutagenicity index at 313.73 uM/plate incubated for 90 mins at 37 degC in presence of liver S9 fractions by Ames test relative to control. The class given is toxicity, organism-based. The following applies: salmonella enterica subsp. enterica serovar typhimurium, s9, 1.5 h.

Data set [17] deals with Salmonella typhimurium. The data set can be described thus: Mutagenicity in Salmonella typhimurium TA100 assessed as mutagenicity index at 905.66 uM/plate incubated for 90 mins at 37 degC in presence of liver S9 fractions by Ames test relative to control. The class given is toxicity, organism-based. To be noted: salmonella enterica subsp. enterica serovar typhimurium, s9, 1.5 h.

Data set [18] relates to Salmonella typhimurium. The data set is described as follows: Mutagenicity in Salmonella typhimurium TA98 assessed as mutagenicity index at 1454.55 uM/plate incubated for 90 mins at 37 degC in absence of liver S9 fractions by Ames test relative to control. The class given is toxicity, organism-based. The following applies: salmonella enterica subsp. enterica serovar typhimurium, 1.5 h.

Data set [19] concerns Salmonella typhimurium. The data set is described as follows: Mutagenicity in Salmonella typhimurium TA98 assessed as mutagenicity index at 905.66 uM/plate incubated for 90 mins at 37 degC in presence of liver S9 fractions by Ames test relative to control. The following applies: salmonella enterica subsp. enterica serovar typhimurium, s9, 1.5 h. The class given is toxicity, organism-based.

In data set [20] the test system is Salmonella typhimurium. The data set can be described thus: Mutagenicity in Salmonella typhimurium TA97a assessed as mutagenicity index at 1454.55 uM/plate incubated for 90 mins at 37 degC in absence of liver S9 fractions by Ames test relative to control. It is filed as toxicity, organism-based. The following applies: salmonella enterica subsp. enterica serovar typhimurium, 1.5 h.

Data set [21] concerns Salmonella typhimurium. The data set can be described thus: Mutagenicity in Salmonella typhimurium TA102 assessed as mutagenicity index at 1454.55 uM/plate incubated for 90 mins at 37 degC in absence of liver S9 fractions by Ames test relative to control. The class given is toxicity, organism-based. To be noted: salmonella enterica subsp. enterica serovar typhimurium, 1.5 h.

Data set [22] has as its system Salmonella typhimurium. The data set can be described thus: Mutagenicity in Salmonella typhimurium TA98 assessed as mutagenicity index at 1454.55 uM/plate incubated for 90 mins at 37 degC in presence of liver S9 fractions by Ames test relative to control. To be noted: salmonella enterica subsp. enterica serovar typhimurium, s9, 1.5 h. It is filed as toxicity, organism-based.

Data set [23] deals with Salmonella typhimurium. The data set is described as follows: Mutagenicity in Salmonella typhimurium TA98 assessed as mutagenicity index at 616.38 uM/plate incubated for 90 mins at 37 degC in absence of liver S9 fractions by Ames test relative to control. It is filed as toxicity, organism-based. The following applies: salmonella enterica subsp. enterica serovar typhimurium, 1.5 h.

In data set [24] the test system is Salmonella typhimurium. The data set can be described thus: Mutagenicity in Salmonella typhimurium TA100 assessed as mutagenicity index at 616.38 uM/plate incubated for 90 mins at 37 degC in absence of liver S9 fractions by Ames test relative to control. To be noted: salmonella enterica subsp. enterica serovar typhimurium, 1.5 h. The class given is toxicity, organism-based.

Data set [25] is described as follows: Mutagenicity in CHOK1 cells assessed as induction of chromosomal DNA mutation by measuring nuclear division index level at 14.51 to 58.04 incubated for 3 hrs by fluorescence microscopy. To be noted: chinese hamster, cho-k1, 3 h. It is filed as toxicity, cell-based, Cricetulus griseus.
In data set [26] the test system is Salmonella typhimurium. The data set can be described thus: Mutagenicity in Salmonella typhimurium TA100 assessed as mutagenicity index at 1454.55 uM/plate incubated for 90 mins at 37 degC in absence of liver S9 fractions by Ames test relative to control. It is filed as toxicity, organism-based. The following applies: salmonella enterica subsp. enterica serovar typhimurium, 1.5 h.

With `CS(=O)(=O)OCCCCCCCCCCCCn1cc(CCCO)nn1`, the Activity_index in the data set on Salmonella typhimurium [1] stood at 1.1; in the data set on Salmonella typhimurium [2] it was 1.1; with Salmonella typhimurium [3] it was 1.1; in the data set on Salmonella typhimurium [4] it was 1.1; in the data set on Salmonella typhimurium [5], 0.9; in the data set on Salmonella typhimurium [6] it was 1.3. Also, the Activity_index in the data set on Salmonella typhimurium [7] was 1.2; in the data set on Salmonella typhimurium [8] it was 1.4; with Salmonella typhimurium [9] it was 0.9; in the data set with Salmonella typhimurium [10] it was 0.7; with Salmonella typhimurium [11], 1.1.

Regarding `CCOC(=O)c1cn(CCCCCCCCCOS(C)(=O)=O)nn1`, the Activity_index in the data set with Salmonella typhimurium [12] is given as 1; in the data set with Salmonella typhimurium [13] it was 1.7; in the data set with Salmonella typhimurium [14] it was 1.3; in the data set with Salmonella typhimurium [15], 1.2; with Salmonella typhimurium [16] it was 1.4; with Salmonella typhimurium [17], 1. Besides, the Activity_index was determined as 1.4 in the data set with Salmonella typhimurium [18]; 1 in the data set with Salmonella typhimurium [19]; 1.4 in the data set with Salmonella typhimurium [20]; 1.1 with Salmonella typhimurium [21]; 0.8 in the data set on Salmonella typhimurium [22]; 1.2 in the data set with Salmonella typhimurium [23]. Further, the Activity_index with Salmonella typhimurium [24] is listed as 1.3; in the data set with Salmonella typhimurium [26], 1.2. For the same compound, the Activity entry in [25] is given as “Non-toxic”.

Values taken from ChEMBL document CHEMBL3611972, “Leishmanicidal, antiproteolytic, and mutagenic evaluation of alkyltriazoles and alkylphosphocholines” (Eur J Med Chem, 2015).
